Test results from patent publication US4520022A, “Substituted vinyl cephalosporins” (priority 1983, dated 1985).
Values after ≈ are worked out from the molar mass of the structure shown. Like-named read-outs stand apart in the source and are kept apart here.

Legend:
[1] = test system: S. aureus BX-1633; test: Protective dose PD50, mice infected with lethal inoculum, oral treatment, S. aureus BX-1633; format: in vivo; conditions: Staphylococcus aureus, BX1633, 120 h
[2] = test system: S. pyogenes A20201; test: Protective dose PD50, mice infected with lethal inoculum, oral treatment, S. pyogenes A20201; format: in vivo; conditions: Streptococcus pyogenes, 120 h
[3] = test system: H. influenza A9729; test: Protective dose PD50, mice infected with lethal inoculum, oral treatment, H. influenza A9729; format: in vivo; conditions: Mus musculus, 120 h
Source text: The structure activity correlations drawn from the foregoing in vitro studies are born out by the results of in vivo studies in mice. Table 4 is a tabulation of the protective doses for mice infected with a lethal inoculum of a bacteria. Two different bacteria were employed in the studies, one a Gram+ organism and the other a Gram- organism. The protective dose (PD50) is that dose which when administered to a group of infected mice results in 50% survival after five days. Normally untreated infected mice die within three days following injection of the lethal inoculum.
Protective Dose PD50 for Mice Infected with Lethal Inoculum

[4] = test system: P. mirabilis A9554; test: Protective dose PD50, mice infected with lethal inoculum, oral treatment, P. mirabilis A9554; format: in vivo
[5] = test system: S. pyogenes; test: In vitro activity against Streptococci (MIC), S. pyogenes; format: cell-based; conditions: Streptococcus pyogenes, Compound 9 lot 2
[6] = test system: S. pneumoniae; test: In vitro activity against Streptococci (MIC), S. pneumoniae; format: cell-based; conditions: Streptococcus pneumoniae, Compound 9 lot 2
[7] = test system: N. gonorrheae; test: In vitro activity against Neisseria (MIC), N. gonorrheae; format: cell-based
[8] = test system: N. meningitidis; test: In vitro activity against Neisseria (MIC), N. meningitidis; format: cell-based
[9] = test system: H. influenzae; test: In vitro activity against Haemophilis (MIC), H. influenzae; format: cell-based; conditions: Haemophilus influenzae, Compound 9 lot 2
[10] = mouse, in vivo
[11] = in vivo; conditions: mouse; for half-life: T1/2
[12] = test system: Gp Ib: S. aureus 193, BX-1633-2 A9606, A15092, Russell, A9602; conditions: Staphylococcus aureus
[13] = test system: Gp Ia: S. aureus Smith A9537, A9497, Terajima, A9534, A9601; conditions: Staphylococcus aureus
[14] = test system: S. aureus Smith; test: Protective dose, mice infected with lethal inoculum, oral treatment, S. aureus Smith; format: in vivo; conditions: Staphylococcus aureus, po, 120 h, oral; separate run of Compound 42 and BMY28100; cephalexin/cefadroxil controls not available; read-out: Protective dose (PD50), S. aureus Smith
[15] = test system: bacteria; test: Antibacterial activity, general statements; conditions: in words
[16] = test system: Gp Ia, Gp Ib, Gn Ia organisms of Table 2; test: Test medium comparison, agar dilution MIC, Mueller-Hinton agar versus nutrient agar

With `CC1=C(C(=O)O)N2C(=O)[C@@H](NC(=O)[C@H](N)c3ccc(O)cc3)[C@H]2SC1` [Cefadroxil] the ED50 [1] was 7.2 mg/kg, the ED50 [2] was 0.25 mg/kg and the ED50 [3] was 25 mg/kg. The “Protective Dose PD50” value [4] was 14, the MIC ([5]; S. pyogenes A9604, read-out: MIC) was 0.8 µg/mL (≈ 2.2 µM) and the MIC ([5]; S. pyogenes A15040, read-out: MIC) was 0.8 µg/mL (≈ 2.2 µM). For the same compound, the MIC ([5]; S. pyogenes A20065, read-out: MIC) was 0.8 µg/mL (≈ 2.2 µM), the MIC ([5]; S. pyogenes A20201, read-out: MIC) was 0.4 µg/mL (≈ 1.1 µM) and the MIC ([5]; S. pyogenes Dick, read-out: MIC) was 0.8 µg/mL (≈ 2.2 µM). The MIC ([5]; S. pyogenes S-23, Dick, A9604, A20065, A15040, read-out: MIC, Geometric Mean) was 0.8 µg/mL (≈ 2.2 µM), the MIC ([5]; S. pyogenes S-23, read-out: MIC) was 0.8 µg/mL (≈ 2.2 µM) and the MIC ([6]; S. pneumoniae A9585, read-out: MIC) was 1.6 µg/mL (≈ 4.4 µM). It also gave an MIC ([6]; S. pneumoniae A15069, read-out: MIC) of 1.6 µg/mL (≈ 4.4 µM), an MIC ([6]; S. pneumoniae A20759, read-out: MIC) of 3.1 µg/mL (≈ 8.53 µM) and an MIC ([6]; S. pneumoniae Type I, read-out: MIC) of 1.6 µg/mL (≈ 4.4 µM). It also gave an MIC ([6]; S. pneumoniae Type II, I, III, A9585, A15069, read-out: MIC, Geometric Mean) of 1.6 µg/mL (≈ 4.4 µM), an MIC ([6]; S. pneumoniae Type II, read-out: MIC) of 1.6 µg/mL (≈ 4.4 µM) and an MIC ([6]; S. pneumoniae Type III, read-out: MIC) of 1.6 µg/mL (≈ 4.4 µM). The MIC ([7]; N. gonorrheae A20142, Compound 9 lot 2) was 6.3 µg/mL (≈ 17.3 µM), the MIC ([7]; N. gonorrheae A20143, Compound 9 lot 2) was 6.3 µg/mL (≈ 17.3 µM) and the MIC ([7]; N. gonorrheae A20154, Compound 9 lot 2) was 6.3 µg/mL (≈ 17.3 µM). It also gave an MIC ([7]; N. gonorrheae A20155, Compound 9 lot 2) of 6.3 µg/mL (≈ 17.3 µM), an MIC ([7]; read-out: MIC) of 6.3 µg/mL (≈ 17.3 µM) and an MIC ([7]; read-out: MIC, Geometric Mean) of 6.3 µg/mL (≈ 17.3 µM). It also gave an MIC ([8]; N. meningitidis A21487, Compound 9 lot 2) of 6.3 µg/mL (≈ 17.3 µM), an MIC ([8]; N. meningitidis A21496, Compound 9 lot 2) of 6.3 µg/mL (≈ 17.3 µM) and an MIC ([8]; N. meningitidis A21497, Compound 9 lot 2) of 6.3 µg/mL (≈ 17.3 µM). The MIC ([8]; Neisseria meningitidis, read-out: MIC) was 6.3 µg/mL (≈ 17.3 µM), the MIC ([8]; Neisseria meningitidis, read-out: MIC, Geometric Mean) was 6.3 µg/mL (≈ 17.3 µM) and the MIC ([9]; H. influenzae A9729, read-out: MIC) was 6.3 µg/mL (≈ 17.3 µM). For the same compound, the MIC ([9]; H. influenzae A9833, read-out: MIC) was 6.3 µg/mL (≈ 17.3 µM), the MIC ([9]; H. influenzae A20177, read-out: MIC) was 6.3 µg/mL (≈ 17.3 µM) and the MIC ([9]; H. influenzae A20193, read-out: MIC) was 6.3 µg/mL (≈ 17.3 µM). For the same compound, the MIC ([9]; H. influenzae A21523, read-out: MIC) was 6.3 µg/mL (≈ 17.3 µM), the MIC ([9]; H. influenzae A22157, read-out: MIC) was 6.3 µg/mL (≈ 17.3 µM) and the MIC ([9]; H. influenzae A22481, read-out: MIC) was 6.3 µg/mL (≈ 17.3 µM). The MIC ([9]; H. influenzae A22482, read-out: MIC) was 6.3 µg/mL (≈ 17.3 µM), the MIC ([9]; H. influenzae A22483, read-out: MIC) was 6.3 µg/mL (≈ 17.3 µM) and the MIC ([9]; H. influenzae A22491, read-out: MIC) was 6.3 µg/mL (≈ 17.3 µM). For the same compound, the MIC ([9]; H. influenzae, seven strains above, read-out: MIC, Geometric Mean) was 6.3 µg/mL (≈ 17.3 µM), the T1/2 ([10]; im, 20 mg/kg) was 0.37 h and the T1/2 ([10]; po, 20 mg/kg) was 1.6 h. The T1/2 ([10]; po, 100 mg/kg) was 1.5 h, the AUC ([11]; im, 20 mg/kg, AUC*) was 14000 ng·h/mL and the Cmax ([11]; im, 20 mg/kg) was 21000 ng/mL. The half-life ([11]; im, 20 mg/kg) was 0.33 h, the AUC ([11]; po, 20 mg/kg, AUC*) was 18000 ng·h/mL and the Cmax ([11]; po, 20 mg/kg) was 12000 ng/mL. It also gave a half-life ([11]; po, 20 mg/kg) of 1.2 h, an AUC ([11]; po, 100 mg/kg, AUC) of 103000 ng·h/mL and a Cmax ([11]; po, 100 mg/kg) of 56000 ng/mL. The half-life ([11]; po, 100 mg/kg) was 2.3 h, the MIC ([12]; read-out: Minimum Inhibitory Concentration Gp Ib, Mueller-Hinton agar, run 1, average of five organisms) was 3.6 µg/mL (≈ 9.91 µM) and the MIC ([12]; read-out: Minimum Inhibitory Concentration Gp Ib, Mueller-Hinton agar, run 2, average of five organisms) was 4.1 µg/mL (≈ 11.3 µM). The MIC ([13]; read-out: Minimum Inhibitory Concentration Gp Ia, Mueller-Hinton agar, run 1, average of five organisms) was 1.2 µg/mL (≈ 3.3 µM) and the MIC ([13]; read-out: Minimum Inhibitory Concentration Gp Ia, Mueller-Hinton agar, run 2, average of five organisms) was 1.1 µg/mL (≈ 3.03 µM).
With `C/C=C\C1=C(C(=O)O)N2C(=O)[C@@H](NC(=O)[C@H](N)c3ccc(O)c(OC)c3)[C@H]2SC1` [Compound 42, 7β-[D(-)-2-Amino-2-(4-hydroxy-3-methoxyphenyl)acetamido]-3-[(Z)-1-propen-1-yl]-3-cephem-4-carboxylic Acid] the ED50 [14] was 0.09 mg/kg, the antibacterial activity [15] was “high in vitro and in vivo activity” and the “difference in MIC between the two media” value [16] was “less than three fold”. It also gave an MIC ([12]; read-out: Minimum Inhibitory Concentration Gp Ib, Mueller-Hinton agar, not part of run 1, tested separately, average of five organisms) of 1.2 µg/mL (≈ 2.86 µM), an MIC ([12]; read-out: Minimum inhibitory Concentration Gp Ib, Test Medium Comparison, A: Mueller-Hinton agar, average values) of 1.2 µg/mL (≈ 2.86 µM) and an MIC ([12]; read-out: Minimum inhibitory Concentration Gp Ib, Test Medium Comparison, B: Nutrient agar, average values) of 0.4 µg/mL (≈ 0.954 µM). It also gave an MIC ([13]; read-out: Minimum Inhibitory Concentration Gp Ia, Mueller-Hinton agar, not part of run 1, tested separately, average of five organisms) of 0.35 µg/mL (≈ 0.834 µM), an MIC ([13]; read-out: Minimum inhibitory Concentration Gp Ia, Test Medium Comparison, A: Mueller-Hinton agar, average values) of 0.35 µg/mL (≈ 0.834 µM) and an MIC ([13]; read-out: Minimum inhibitory Concentration Gp Ia, Test Medium Comparison, B: Nutrient agar, average values) of 0.23 µg/mL (≈ 0.548 µM).
